Source: patent US11583531B2, “Solid forms of a toll-like receptor modulator” (Gilead Sciences, Inc., priority 2019, dated 2023)

Test: Dynamic vapor sorption (moisture sorption/desorption)
Assay type: physicochemical
Details: for solid form after the DVS experiment (form stability): post-DVS analysis, 5% to 95% RH cycle; for water absorbed (dynamic vapor sorption): up to 95% RH at 25° C.
Description: Moisture sorption/desorption data were collected on a VTI SGA-100 Vapor Sorption Analyzer. NaCl and PVP were used as calibration standards. Samples were not dried prior to analysis. Sorption and desorption data were collected over a range from 5% to 95% RH at 10% RH increments under a nitrogen purge. The equilibrium criterion used for analysis was less than 0.0100% weight change in 5 minutes with a maximum equilibration time of 3 hours. Weight percentages reported in the data section are relative to the total sample mass introduced prior to equilibration at 5% RH as measured on the instrument.

SMILES | solid form after the DVS experiment (form stability) | water absorbed (dynamic vapor sorption) | further results
CCCC[C@](C)(CO)Nc1nc(N)nc2cc(F)cnc12 [Compound I Form I, (R)-2-((2-amino-7-fluoropyrido[3,2-d]pyrimidin-4-yl)amino)-2-methylhexan-1-ol] | not have changed forms | about 0.89% | 
CCCC[C@](C)(CO)Nc1nc(N)nc2cc(F)cnc12.O=C(O)/C=C/C(=O)O [Compound I Fumaric Acid, (R)-2-((2-amino-7-fluoropyrido[3,2-d]pyrimidin-4-yl)amino)-2-methylhexan-1-ol fumaric acid] | not have changed forms | about 2.3% | 
CCCC[C@](C)(CO)Nc1nc(N)nc2cc(F)cnc12.Cl [Compound I HCl Form I, (R)-2-((2-amino-7-fluoropyrido[3,2-d]pyrimidin-4-yl)amino)-2-methylhexan-1-ol hydrochloride] |  |  | hygroscopicity by dynamic vapor sorption (5% to 95% RH): hygroscopic; further weight loss, desorption curve (below 65% RH down to 5% RH): No further weight % loss was observed; weight gain, sorption cycle (between 5% and 55% RH): approximately 0.6%; weight gain, sorption cycle (between 65% RH and 95% RH): approximately 28.1%; weight loss, desorption curve (between 85% and 65% RH): 1.8%; weight loss, desorption curve (from 95% to 85% RH): approximately 11.2%; solid form after the DVS experiment (form stability) (hydrochloride): composed of a new crystalline material, designated Compound I Hydrochloride Form II
CCCC[C@](C)(CO)Nc1nc(N)nc2cc(F)cnc12.Cl [Compound I HCl Form II, (R)-2-((2-amino-7-fluoropyrido[3,2-d]pyrimidin-4-yl)amino)-2-methylhexan-1-ol hydrochloride] |  |  | weight gain, sorption cycle (from 5% to 95% RH): approximately 19.8%; solid form after the DVS experiment (form stability) (hydrochloride): not have changed forms
CCCC[C@](C)(CO)Nc1nc(N)nc2cc(F)cnc12.O=C(O)/C=C\C(=O)O [Compound I Maleic Acid, (R)-2-((2-amino-7-fluoropyrido[3,2-d]pyrimidin-4-yl)amino)-2-methylhexan-1-ol maleic acid] | not have changed forms | about 0.11% | 
CCCC[C@](C)(CO)Nc1nc(N)nc2cc(F)cnc12.CS(=O)(=O)O [Compound I Methanesulfonic Acid, (R)-2-((2-amino-7-fluoropyrido[3,2-d]pyrimidin-4-yl)amino)-2-methylhexan-1-ol methanesulfonic acid] | not have changed forms | about 38% | 
CCCC[C@](C)(CO)Nc1nc(N)nc2cc(F)cnc12.O=C(O)C(O)C(O)C(=O)O [Compound I Tartaric Acid, (R)-2-((2-amino-7-fluoropyrido[3,2-d]pyrimidin-4-yl)amino)-2-methylhexan-1-ol tartaric acid] | not have changed forms | about 1.5% | 
